Test results: US8895733B2 (Novartis AG, priority 2010, dated 2014)
Where two headings read alike, the source gives them in different places.

Molecular target: T1, Nav 1.7 (Homo sapiens, UniProt Q15858)
T1 construct: expressed in transfected cells
Assay: Whole-cell voltage clamp electrophysiology, automated patch clamp (marker c in Table of Examples)
Type: cell-based
Settings: read-out: Nav 1.7 activity
In short: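 A voltage protocol weighted toward inactivated-state block was used to test compounds on stably expressing cells, with pulses from −65 mV holding to −10 mV test and −100 mV. Currents came from whole-cell automated patch-clamp recordings, either IonWorks Quattro or other automated instruments, usually in perforated-patch mode.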

[1] = marker c: Automated patch clamp data
[2] = marker c = Automated patch clamp data

T1 sequence (Q15858 whole entry): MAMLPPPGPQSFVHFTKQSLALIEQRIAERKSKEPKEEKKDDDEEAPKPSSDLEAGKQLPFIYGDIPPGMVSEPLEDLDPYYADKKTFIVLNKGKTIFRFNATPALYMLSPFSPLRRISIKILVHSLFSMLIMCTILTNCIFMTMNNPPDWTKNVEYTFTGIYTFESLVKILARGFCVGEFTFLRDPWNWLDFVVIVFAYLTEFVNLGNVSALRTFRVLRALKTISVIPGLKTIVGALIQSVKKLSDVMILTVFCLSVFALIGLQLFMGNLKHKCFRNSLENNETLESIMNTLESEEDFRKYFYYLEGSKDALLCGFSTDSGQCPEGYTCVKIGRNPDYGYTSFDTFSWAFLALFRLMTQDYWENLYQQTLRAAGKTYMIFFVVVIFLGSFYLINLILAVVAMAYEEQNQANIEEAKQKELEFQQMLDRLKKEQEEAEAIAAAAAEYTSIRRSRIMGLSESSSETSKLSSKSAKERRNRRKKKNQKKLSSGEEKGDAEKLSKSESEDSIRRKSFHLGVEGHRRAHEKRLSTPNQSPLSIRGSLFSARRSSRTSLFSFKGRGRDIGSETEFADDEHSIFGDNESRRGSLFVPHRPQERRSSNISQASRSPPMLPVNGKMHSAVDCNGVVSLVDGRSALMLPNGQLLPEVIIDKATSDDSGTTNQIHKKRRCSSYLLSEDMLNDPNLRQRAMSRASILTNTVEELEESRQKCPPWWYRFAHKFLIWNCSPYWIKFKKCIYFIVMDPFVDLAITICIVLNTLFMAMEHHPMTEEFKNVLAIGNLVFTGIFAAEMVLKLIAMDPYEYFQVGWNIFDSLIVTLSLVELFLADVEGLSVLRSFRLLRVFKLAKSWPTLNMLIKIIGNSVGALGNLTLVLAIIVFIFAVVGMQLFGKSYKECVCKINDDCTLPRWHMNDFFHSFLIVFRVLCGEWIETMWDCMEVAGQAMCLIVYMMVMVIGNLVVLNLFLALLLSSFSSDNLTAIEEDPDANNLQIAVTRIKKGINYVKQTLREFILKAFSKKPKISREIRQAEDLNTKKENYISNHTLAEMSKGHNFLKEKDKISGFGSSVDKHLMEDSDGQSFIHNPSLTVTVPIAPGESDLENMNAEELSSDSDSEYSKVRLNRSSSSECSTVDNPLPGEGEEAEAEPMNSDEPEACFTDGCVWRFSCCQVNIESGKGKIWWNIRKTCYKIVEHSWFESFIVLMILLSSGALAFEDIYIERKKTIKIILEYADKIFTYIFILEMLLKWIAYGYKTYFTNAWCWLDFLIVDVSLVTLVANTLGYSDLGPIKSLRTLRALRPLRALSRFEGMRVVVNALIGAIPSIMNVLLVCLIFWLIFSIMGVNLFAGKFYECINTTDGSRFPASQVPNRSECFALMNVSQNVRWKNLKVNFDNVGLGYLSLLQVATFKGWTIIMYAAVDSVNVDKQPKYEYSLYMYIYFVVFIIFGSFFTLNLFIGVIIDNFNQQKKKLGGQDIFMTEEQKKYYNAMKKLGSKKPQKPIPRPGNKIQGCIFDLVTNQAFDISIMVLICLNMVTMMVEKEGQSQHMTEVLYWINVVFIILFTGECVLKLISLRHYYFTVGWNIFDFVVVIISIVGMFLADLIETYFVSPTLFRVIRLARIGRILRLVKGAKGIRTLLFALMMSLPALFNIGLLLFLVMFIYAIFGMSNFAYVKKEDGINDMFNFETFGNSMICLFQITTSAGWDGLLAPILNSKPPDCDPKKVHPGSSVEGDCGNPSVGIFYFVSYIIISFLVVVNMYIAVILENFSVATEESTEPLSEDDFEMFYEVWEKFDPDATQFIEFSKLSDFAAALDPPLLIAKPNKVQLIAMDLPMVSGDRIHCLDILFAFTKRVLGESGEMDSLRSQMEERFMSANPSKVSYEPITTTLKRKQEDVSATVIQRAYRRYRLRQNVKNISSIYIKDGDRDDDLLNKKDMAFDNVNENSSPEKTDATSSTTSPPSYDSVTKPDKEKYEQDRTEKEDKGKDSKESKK

| Structure (SMILES) | IC50 [1] [nM] | IC50 [2] [nM] |
| --- | --- | --- |
| Cc1cccc(N(C)c2nc(N)nc(-c3noc(-c4ccccc4OC(F)(F)F)n3)n2)c1 [Example 194, 2-N-methyl-2-N-(3-methylphenyl)-6-{5-[2-(trifluoromethoxy)phenyl]-1,2,4-oxadiazol-3-yl}-1,3,5-triazine-2,4-diamine] | 843 | – |
| Cc1cccc(N(C)c2nc(N)nc(-c3noc(-c4ccccc4Cl)n3)n2)c1 [Example 195, 6-[5-(2-chlorophenyl)-1,2,4-oxadiazol-3-yl]-2-N-methyl-2-N-(3-methylphenyl)-1,3,5-triazine-2,4-diamine] | 431 | – |
| CCOc1ccccc1-c1nc(-c2nc(N)nc(N(CC)c3ccccc3)n2)no1 [Example 196, 6-[5-(2-ethoxyphenyl)-1,2,4-oxadiazol-3-yl]-2-N-ethyl-2-N-phenyl-1,3,5-triazine-2,4-diamine] | 764 | – |
| CCN(c1ccccc1)c1nc(N)nc(-c2noc(-c3cc(F)ccc3OC)n2)n1 [Example 197, 2-N-ethyl-6-[5-(5-fluoro-2-methoxyphenyl)-1,2,4-oxadiazol-3-yl]-2-N-phenyl-1,3,5-triazine-2,4-diamine] | 571 | – |
| CCN(c1ccccc1)c1nc(N)nc(-c2noc(-c3ccccc3OC(F)(F)F)n2)n1 [Example 198, 2-N-ethyl-2-N-phenyl-6-{5-[2-(trifluoromethoxy)phenyl]-1,2,4-oxadiazol-3-yl}-1,3,5-triazine-2,4-diamine] | 777 | – |
| COc1ccccc1Cc1nc(-c2nc(N)nc(N(C)c3ccccc3)n2)no1 [Example 199, 6-{5-[(2-methoxyphenyl)methyl]-1,2,4-oxadiazol-3-yl}-2-N-methyl-2-N-phenyl-1,3,5-triazine-2,4-diamine] | – | 8730 |
| CCCS(=O)(=O)N1CCC(c2nc(-c3nc(N)nc(N(C)c4ccccc4)n3)no2)C1 (stereo not shown) [Example 200, 2-N-methyl-2-N-phenyl-6-{5-[1-(propane-1-sulfonyl)pyrrolidin-3-yl]-1,2,4-oxadiazol-3-yl}-1,3,5-triazine-2,4-diamine] | – | 8590 |
| CC(C)S(=O)(=O)N1CCC(c2nc(-c3nc(N)nc(N(C)c4ccccc4)n3)no2)C1 (stereo not shown) [Example 201, 2-N-methyl-2-N-phenyl-6-{5-[1-(propane-2-sulfonyl)pyrrolidin-3-yl]-1,2,4-oxadiazol-3-yl}-1,3,5-triazine-2,4-diamine] | – | 3290 |
| CN(c1ccccc1)c1nc(N)nc(-c2noc(C3CCN(S(=O)(=O)CC(F)(F)F)C3)n2)n1 (stereo not shown) [Example 202, 2-N-methyl-2-N-phenyl-6-(5-{1-[(2,2,2-trifluoroethane)sulfonyl]pyrrolidin-3-yl}-1,2,4-oxadiazol-3-yl)-1,3,5-triazine-2,4-diamine] | – | 1790 |
| CN(c1ccccc1)c1nc(N)nc(-c2noc(C3CCN(S(=O)(=O)c4ccccc4)C3)n2)n1 (stereo not shown) [Example 203, 6-{5-[1-(benzenesulfonyl)pyrrolidin-3-yl]-1,2,4-oxadiazol-3-yl}-2-N-methyl-2-N-phenyl-1,3,5-triazine-2,4-diamine] | – | 4560 |
| CN(c1ccccc1)c1nc(N)nc(-c2noc(C3CCN(CCC(F)(F)F)C3)n2)n1 (stereo not shown) [Example 204, 2-N-methyl-2-N-phenyl-6-{5-[1-(3,3,3-trifluoropropyl)pyrrolidin-3-yl]-1,2,4-oxadiazol-3-yl}-1,3,5-triazine-2,4-diamine] | – | > 7830 |
| CC(CC(F)(F)F)N1CCC(c2nc(-c3nc(N)nc(N(C)c4ccccc4)n3)no2)C1 (stereo not shown) [Example 205, 2-N-methyl-2-N-phenyl-6-{5-[1-(4,4,4-trifluorobutan-2-yl)pyrrolidin-3-yl]-1,2,4-oxadiazol-3-yl}-1,3,5-triazine-2,4-diamine] | – | 1530 |
| CC(OCc1ccc(-c2nc(-c3nc(N)nc(N(C)c4ccccc4)n3)no2)cn1)C(F)(F)F (stereo not shown) [Example 206, 2-N-methyl-2-N-phenyl-6-[5-(6-{[(1,1,1-trifluoropropan-2-yl)oxy]methyl}pyridin-3-yl)-1,2,4-oxadiazol-3-yl]-1,3,5-triazine-2,4-diamine] | – | 17 |
